Assay results from US11472805B2, “Tricyclic compounds and their use as phosphodiesterase inhibitors” (Pfizer Inc., priority 2015, dated 2022).

Columns and labels:
Type in all cases: biochemical
Human PDE4C1 = Human PDE4C1 (Homo sapiens (Human), UniProt Q08493); experiment: PDE4C1 Scintillation Proximity Assay (SPA), inhibition of enzyme activity; settings: Table 9, geometric mean of 2-9 determinations unless otherwise indicated, read-out: Human PDE4C FL
Description: (§1) The PDE4A, PDE4B, PDE4C and PDE4D binding affinity for the compounds of the present invention was determined utilizing the following biological assay(s):
(§2) The recombinant Bacmid was isolated and used to transfect insect cells to generate a viral stock. To generate cell paste for purification, insect cells were infected with the virus stock and cells were harvested 72 hours after infection. Insect cell paste was lysed and after centrifugation, the supernatant was batch bound to Ni-NTA agarose (GE Healthcare) and eluted with 250 mM imidazole. This eluate was diluted with FLAG buffer (50 mM Tris HCL pH 7.5, 100 mM NaCl, 5% Glycerol, 1 mM TCEP with protease inhibitors) and batch bound to ant-FLAG M2 agarose (Sigma) overnight at 4° C. The agarose was packed into a column, washed with buffer and eluted with buffer containing elute using 250 ug/ml Flag-peptide. Fractions were analyzed using SDS-PAGE Coomassie blue staining and pooled based on purity. Pooled fractions were chromatographed on a S200 120 ml column (GE Healthcare) in 50 mM Tris HCL pH 7.5, 150 mM NaCl, 10% Glycerol, 2 mM TCEP with protease inhibitors. PDE4C1 fractions were analyzed by SDS-PAGE Coomassie blue staining, pooled based on purity, dialyzed against 50 mM Tris HCL pH 7.5, 100 mM NaCl, 20% Glycerol, 2 mM TCEP, frozen and stored at −80° C.
(§3) The PDE4A3, PDE4B1, PDE4C1 and PDE4D3 assays use the Scintillation Proximity Assay (SPA) technology to measure the inhibition of human recombinant PDE4A1, PDE4B3, PDE4C1, and PDE4D3 enzyme activity by compounds in vitro. The PDE4A1, PDE4B3, PDE4C1, and PDE4D3 assays are run in parallel using identical parameters, except for the concentration of enzyme ([…]). The assays are performed in a 384-well format with 50 uL assay buffer (50 mM TRIS pH7.5; 1.3 mM MgCl2; 0.01% Brij) containing enough PDE4A3, PDE4B1, PDE4C1, and PDE4D to convert ˜20% of substrate (1 μM cAMP consisting of 20 nM 3H-cAMP+[…] cold cAMP) and a range of inhibitors. Reactions are incubated for 30 min at 25° C. The addition of 20 uL of 8 mg/ml yitrium silicate SPA beads (Perkin Elmer) stops the reaction. The plates are sealed (TopSeal, Perkin Elmer) and the beads are allowed to settle for 8 hrs, after which they are read on the Trilux Microbeta overnight.

Human PDE4B1 = Human PDE4B1 (Homo sapiens (Human), UniProt Q07343, S133E/S654A/S659A/S661A); experiment: PDE4B1 Scintillation Proximity Assay (SPA), inhibition of enzyme activity; settings: Table 9, geometric mean of 2-9 determinations unless otherwise indicated, read-out: Human PDE4B FL
Human PDE4B1, sequence (Q07343 122-736 S133E/S654A/S659A/S661A): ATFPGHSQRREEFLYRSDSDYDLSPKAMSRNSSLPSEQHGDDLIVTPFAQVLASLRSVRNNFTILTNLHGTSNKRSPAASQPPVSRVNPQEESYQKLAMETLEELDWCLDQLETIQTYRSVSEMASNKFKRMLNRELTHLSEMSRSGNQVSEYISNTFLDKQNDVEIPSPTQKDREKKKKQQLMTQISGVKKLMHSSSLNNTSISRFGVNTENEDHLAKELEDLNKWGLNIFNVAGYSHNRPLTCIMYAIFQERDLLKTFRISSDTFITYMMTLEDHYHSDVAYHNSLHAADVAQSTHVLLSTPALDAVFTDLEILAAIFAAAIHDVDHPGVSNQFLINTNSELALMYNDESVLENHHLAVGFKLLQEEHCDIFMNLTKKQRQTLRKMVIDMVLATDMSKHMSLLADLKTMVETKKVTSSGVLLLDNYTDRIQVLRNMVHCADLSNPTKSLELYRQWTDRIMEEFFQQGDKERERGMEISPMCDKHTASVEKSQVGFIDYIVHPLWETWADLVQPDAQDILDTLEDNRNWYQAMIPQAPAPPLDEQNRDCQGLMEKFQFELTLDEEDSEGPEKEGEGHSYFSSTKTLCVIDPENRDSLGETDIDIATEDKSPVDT
Description: as §1
The recombinant Bacmid was isolated and used to transfect insect cells to generate a viral stock. To generate cell paste for purification, insect cells were infected with the virus stock and cells were harvested 72 hours after infection as described in Seeger, T. F. et al., Brain Research 985 (2003) 113-126. Insect cell paste was lysed and after centrifugation, the supernatant was chromatographed on Ni-NTA agarose (Qiagen) as described in Seeger, T. F. et al., Brain Research 985 (2003) 113-126. Ni-NTA agarose eluting fractions containing PDE4 were pooled, diluted with Q buffer A (20 mM Tris HCl pH 8, 5% glycerol, 1 mM TCEP) to reduce NaCl to ˜100 mM and loaded on a Source 15Q (GE Healthcare) column. After washing with Q buffer A/10% buffer B to baseline, PDE4D was eluted with a gradient from 10% to 60% of Buffer B (20 mM Tris HCl pH 8, 1 M NaCl, 5% glycerol, 1 mM TCEP). PDE4D fractions were analyzed by SDS-PAGE Coomassie blue staining, pooled based on purity, frozen and stored at −80° C.
as §3

Human PDE4A3 = Human PDE4A3 (Homo sapiens (Human), UniProt P27815); experiment: PDE4A3 Scintillation Proximity Assay (SPA), inhibition of enzyme activity; settings: Table 9, geometric mean of 2-9 determinations unless otherwise indicated, read-out: Human PDE4A FL
Human PDE4A3, sequence (P27815 other isoform, or with tags, fused parts or gaps): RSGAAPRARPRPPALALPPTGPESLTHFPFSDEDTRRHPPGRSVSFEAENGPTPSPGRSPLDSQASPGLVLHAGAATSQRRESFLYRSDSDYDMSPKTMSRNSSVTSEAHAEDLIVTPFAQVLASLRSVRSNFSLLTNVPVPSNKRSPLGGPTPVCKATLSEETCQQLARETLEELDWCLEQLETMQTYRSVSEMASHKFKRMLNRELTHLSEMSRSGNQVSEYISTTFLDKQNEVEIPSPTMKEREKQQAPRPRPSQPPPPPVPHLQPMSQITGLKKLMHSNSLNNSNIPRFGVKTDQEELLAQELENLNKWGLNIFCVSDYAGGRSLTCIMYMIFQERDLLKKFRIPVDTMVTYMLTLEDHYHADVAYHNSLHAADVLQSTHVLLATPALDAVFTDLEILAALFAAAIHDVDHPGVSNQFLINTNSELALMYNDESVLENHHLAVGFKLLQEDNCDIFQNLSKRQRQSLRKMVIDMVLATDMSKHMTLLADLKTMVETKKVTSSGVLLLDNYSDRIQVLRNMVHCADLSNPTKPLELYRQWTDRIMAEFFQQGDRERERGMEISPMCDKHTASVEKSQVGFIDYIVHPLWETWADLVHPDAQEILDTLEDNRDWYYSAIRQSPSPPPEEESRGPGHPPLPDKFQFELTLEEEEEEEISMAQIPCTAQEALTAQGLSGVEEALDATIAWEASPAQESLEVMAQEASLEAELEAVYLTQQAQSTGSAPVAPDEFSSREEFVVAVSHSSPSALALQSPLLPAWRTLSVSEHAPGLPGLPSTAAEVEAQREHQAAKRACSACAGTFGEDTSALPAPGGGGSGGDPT
Description: as §1
as §2, with “PDE4A3” for “PDE4C1”
as §3

human PDE4D3 = human PDE4D3 (Homo sapiens (Human), UniProt Q08499); experiment: PDE4D3 Scintillation Proximity Assay (SPA), inhibition of enzyme activity; settings: Table 9, geometric mean of 2-9 determinations unless otherwise indicated, read-out: Human PDE4D FL
human PDE4D3, sequence (Q08499 186-808): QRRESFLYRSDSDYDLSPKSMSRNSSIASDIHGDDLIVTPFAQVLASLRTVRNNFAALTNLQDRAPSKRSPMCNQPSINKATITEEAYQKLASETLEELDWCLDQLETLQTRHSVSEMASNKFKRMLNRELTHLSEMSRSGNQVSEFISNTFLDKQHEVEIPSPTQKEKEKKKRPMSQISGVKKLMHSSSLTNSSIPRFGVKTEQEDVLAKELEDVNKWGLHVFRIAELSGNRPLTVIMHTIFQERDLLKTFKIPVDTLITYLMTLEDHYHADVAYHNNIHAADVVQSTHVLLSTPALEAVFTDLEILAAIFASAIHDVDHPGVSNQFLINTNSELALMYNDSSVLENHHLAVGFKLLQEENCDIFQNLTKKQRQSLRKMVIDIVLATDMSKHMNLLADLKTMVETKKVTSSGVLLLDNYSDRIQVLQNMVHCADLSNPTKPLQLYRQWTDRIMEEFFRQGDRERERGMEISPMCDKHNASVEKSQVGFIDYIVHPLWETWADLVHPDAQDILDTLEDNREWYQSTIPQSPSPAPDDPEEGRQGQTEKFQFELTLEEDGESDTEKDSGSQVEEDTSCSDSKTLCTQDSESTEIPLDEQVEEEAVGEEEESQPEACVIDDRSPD
Description: as §1
A portion of the human PDE4D3 coding sequence (amino acids 50 to 672 from the sequence with accession number Q08499-2) was cloned into the baculovirus expression vector pFastBac (Invitrogen) engineered to include a C-terminal His6 affinity tag to aid in purification as described in Seeger, T. F. et al., Brain Research 985 (2003) 113-126. The recombinant Bacmid was isolated and used to transfect insect cells to generate a viral stock. To generate cell paste for purification, insect cells were infected and cells were harvested 72 hours after infection. Insect cell paste was lysed and after centrifugation, the supernatant was chromatographed on Ni-NTA agarose (Qiagen) as described in Seeger, T. F. et al., Brain Research 985 (2003) 113-126. Ni-NTA agarose eluting fractions containing PDE4 were pooled, diluted with Q Buffer A (50 mM Tris HCl pH 8, 4% glycerol, 100 mM NaCl, 1 mM TCEP, Protease inhibitors EDTA-free (Roche)) to reduce NaCl to ˜200 mM, and loaded on a Q Sepharose (GE Healthcare) column. After washing with Q buffer A to baseline, PDE4D was eluted with a gradient from 10% to 60% of Buffer B (50 mM Tris HCl pH 8, 1 M NaCl, 4% glycerol, 1 mM TCEP). PDE4D fractions were analyzed by SDS-PAGE Coomassie blue staining, pooled based on purity, frozen and stored at −80° C.
as §3

Human PDE4C1, sequence (Q08493 2-712): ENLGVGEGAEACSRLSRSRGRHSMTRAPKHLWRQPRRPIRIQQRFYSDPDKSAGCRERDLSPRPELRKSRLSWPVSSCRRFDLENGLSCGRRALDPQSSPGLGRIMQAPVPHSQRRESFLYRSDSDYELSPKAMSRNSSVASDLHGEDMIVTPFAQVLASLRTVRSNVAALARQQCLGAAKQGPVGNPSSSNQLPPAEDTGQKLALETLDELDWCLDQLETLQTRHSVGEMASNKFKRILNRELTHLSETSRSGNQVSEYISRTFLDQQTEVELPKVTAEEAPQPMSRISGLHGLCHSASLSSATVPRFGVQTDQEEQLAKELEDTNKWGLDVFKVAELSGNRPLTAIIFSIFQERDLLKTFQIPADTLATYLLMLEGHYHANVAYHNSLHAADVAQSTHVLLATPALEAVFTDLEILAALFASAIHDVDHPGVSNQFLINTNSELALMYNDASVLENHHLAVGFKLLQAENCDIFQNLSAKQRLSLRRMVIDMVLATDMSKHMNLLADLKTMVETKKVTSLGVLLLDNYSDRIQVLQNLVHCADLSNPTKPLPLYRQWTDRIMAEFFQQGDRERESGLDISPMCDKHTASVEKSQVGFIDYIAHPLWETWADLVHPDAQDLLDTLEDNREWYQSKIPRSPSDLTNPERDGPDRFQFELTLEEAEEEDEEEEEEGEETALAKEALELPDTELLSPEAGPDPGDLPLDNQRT

Q: What does the source list for `Cc1cc(C#N)c(F)cc1-c1c2c(n3c1C(=O)N(C1CC1)CC3)CCCO2` [Example 16, 4-(8-Cyclopropyl-9-oxo-3,4,6,7,8,9-hexahydro-2H-pyrano[2′,3′:4,5]pyrrolo[1,2-a]pyrazin-10-yl)-2-fluoro-5-methylbenzonitrile]?
A: IC50 (Human PDE4C1): 15.2 nM; IC50 (Human PDE4B1): 1.78 nM; IC50 (Human PDE4A3): 1.57 nM; IC50 (human PDE4D3): 45.5 nM

Q: Which IC50 (Human PDE4C1) does the source give for `O=C1c2c(-c3ccc(Cl)cc3)c3nccnc3n2CCN1C1CC1` [Example 18, 10-(4-Chlorophenyl)-8-cyclopropyl-7,8-dihydropyrrolo[1,2-a:4,5-b′]dipyrazin-9(6H)-one] here?
A: 24.4 nM

Q: What about the IC50 (Human PDE4B1) of the same compound?
A: 10.2 nM

Q: And the IC50 (Human PDE4A3)?
A: 4.12 nM

Q: What about the IC50 (human PDE4D3) of the same compound?
A: 345 nM

Q: `Cc1ccc(-c2c3n(c4cccnc24)CCN(C2CC2)C3=O)cc1` [Example 20, 8-Cyclopropyl-10-(4-methylphenyl)-7,8-dihydropyrido[2′,3′:4,5]pyrrolo[1,2-a]pyrazin-9(6H)-one] was tested. Which IC50 (Human PDE4C1) did it give?
A: 11.5 nM

Q: And the IC50 (Human PDE4B1)?
A: 4.88 nM

Q: And the IC50 (Human PDE4A3)?
A: 2.52 nM

Q: And the IC50 (human PDE4D3)?
A: 465 nM

Q: Which results are given for `Cc1ncc(-c2c3n(c4cccnc24)CCN(C2CC2)C3=O)cn1` [Example 21, 8-Cyclopropyl-10-(2-methylpyrimidin-5-yl)-7,8-dihydropyrido[2′,3′:4,5]pyrrolo[1,2-a]pyrazin-9(6H)-one]?
A: IC50 (Human PDE4C1): 132 nM; IC50 (Human PDE4B1): 75.9 nM; IC50 (Human PDE4A3): 8.6 nM; IC50 (human PDE4D3): 4340 nM

Q: How did the IC50 (Human PDE4C1) turn out when `N#Cc1ccc(-c2c3n(c4cccnc24)CCN(C2CC2)C3=O)c(F)c1` [Example 22, 4-(8-Cyclopropyl-9-oxo-6,7,8,9-tetrahydropyrido[2′,3′:4,5]pyrrolo[1,2-a]pyrazin-10-yl)-3-fluorobenzonitrile] was run?
A: 20.2 nM

Q: What about the IC50 (Human PDE4B1) of the same compound?
A: 11.3 nM

Q: What about the IC50 (Human PDE4A3) of the same compound?
A: 7.47 nM

Q: And the IC50 (human PDE4D3)?
A: 872 nM

Q: Which IC50 (Human PDE4C1) does the source give for `O=C1c2c(-c3ccc(F)cc3)c3ncccc3n2CCN1C1CC1` [Example 23, 8-Cyclopropyl-10-(4-fluorophenyl)-7,8-dihydropyrido[2′,3′:4,5]pyrrolo[1,2-a]pyrazin-9(6H)-one] here?
A: 82 nM

Q: And the IC50 (Human PDE4B1)?
A: 3.13 nM

Q: What about the IC50 (Human PDE4A3) of the same compound?
A: 13 nM

Q: What about the IC50 (human PDE4D3) of the same compound?
A: 321 nM

Q: What does the source list for `COc1c(F)cc(-c2c3n(c4cccnc24)CCN(C2CC2)C3=O)cc1F` [Example 24, 8-Cyclopropyl-10-(3,5-difluoro-4-methoxyphenyl)-7,8-dihydropyrido[2′,3′:4,5]pyrrolo[1,2-a]pyrazin-9(6H)-one]?
A: IC50 (Human PDE4C1): 24.5 nM; IC50 (Human PDE4B1): 2.94 nM; IC50 (Human PDE4A3): 4.48 nM; IC50 (human PDE4D3): 125 nM

Q: For `O=C1c2c(-c3ccc(Cl)cc3)c3ncncc3n2CCN1C1CC1` [Example 25, 10-(4-Chlorophenyl)-8-cyclopropyl-7,8-dihydropyrazino[1′,2′:1,5]pyrrolo[3,2-d]pyrimidin-9(6H)-one], which IC50 (Human PDE4C1) is on record?
A: 100 nM

Q: And the IC50 (Human PDE4B1)?
A: 48.2 nM

Q: And the IC50 (Human PDE4A3)?
A: 25 nM

Q: What about the IC50 (human PDE4D3) of the same compound?
A: 1780 nM

Q: With `N#Cc1ccc(-c2c3n(c4cccnc24)CCN(C2CC2)C3=O)cn1` [Example 26, 5-(8-Cyclopropyl-9-oxo-6,7,8,9-tetrahydropyrido[2′,3′:4,5]pyrrolo[1,2-a]pyrazin-10-yl)pyridine-2-carbonitrile] as the compound, how does the IC50 (Human PDE4C1) read?
A: 14.8 nM

Q: And the IC50 (Human PDE4B1)?
A: 2.98 nM

Q: What about the IC50 (Human PDE4A3) of the same compound?
A: 8.15 nM

Q: What about the IC50 (human PDE4D3) of the same compound?
A: 138 nM

Q: What does the source list for `O=C1c2c(-c3ccc(Cl)cc3)c3ncsc3n2CCN1C1CC1` [Example 27, 9-(4-Chlorophenyl)-7-cyclopropyl-6,7-dihydro[1,3]thiazolo[4′,5′:4,5]pyrrolo[1,2-a]pyrazin-8(5H)-one]?
A: IC50 (Human PDE4C1): 9.03 nM; IC50 (Human PDE4B1): 3.04 nM; IC50 (Human PDE4A3): 2.28 nM; IC50 (human PDE4D3): 434 nM

Q: How did the IC50 (Human PDE4C1) turn out when `Cc1cc(C#N)c(F)cc1-c1c2n(c3scnc13)CCN(C1CC1)C2=O` [Example 28, 4-(7-Cyclopropyl-8-oxo-5,6,7,8-tetrahydro[1,3]thiazolo[4′,5′:4,5]pyrrolo[1,2-a]pyrazin-9-yl)-2-fluoro-5-methylbenzonitrile] was run?
A: 21 nM

Q: And the IC50 (Human PDE4B1)?
A: 2.14 nM

Q: What about the IC50 (Human PDE4A3) of the same compound?
A: 3.92 nM

Q: What about the IC50 (human PDE4D3) of the same compound?
A: 85.7 nM
